Measured values from ChEMBL document CHEMBL1140941 (J Med Chem, 2009).
Calls of active or inactive are those of the source. No cut-off for these calls is given here.

Key:
[1] = biological target: T1, Progesterone receptor (Homo sapiens) (UniProt P06401); experiment: Agonist activity at gal-PR expressed in african green monkey CV1 cells co-expressing MH100 up to 10 uM by luciferase reporter gene assay relative to control; type: functional, cell-based; settings: CV-1
T1 sequence (whole entry): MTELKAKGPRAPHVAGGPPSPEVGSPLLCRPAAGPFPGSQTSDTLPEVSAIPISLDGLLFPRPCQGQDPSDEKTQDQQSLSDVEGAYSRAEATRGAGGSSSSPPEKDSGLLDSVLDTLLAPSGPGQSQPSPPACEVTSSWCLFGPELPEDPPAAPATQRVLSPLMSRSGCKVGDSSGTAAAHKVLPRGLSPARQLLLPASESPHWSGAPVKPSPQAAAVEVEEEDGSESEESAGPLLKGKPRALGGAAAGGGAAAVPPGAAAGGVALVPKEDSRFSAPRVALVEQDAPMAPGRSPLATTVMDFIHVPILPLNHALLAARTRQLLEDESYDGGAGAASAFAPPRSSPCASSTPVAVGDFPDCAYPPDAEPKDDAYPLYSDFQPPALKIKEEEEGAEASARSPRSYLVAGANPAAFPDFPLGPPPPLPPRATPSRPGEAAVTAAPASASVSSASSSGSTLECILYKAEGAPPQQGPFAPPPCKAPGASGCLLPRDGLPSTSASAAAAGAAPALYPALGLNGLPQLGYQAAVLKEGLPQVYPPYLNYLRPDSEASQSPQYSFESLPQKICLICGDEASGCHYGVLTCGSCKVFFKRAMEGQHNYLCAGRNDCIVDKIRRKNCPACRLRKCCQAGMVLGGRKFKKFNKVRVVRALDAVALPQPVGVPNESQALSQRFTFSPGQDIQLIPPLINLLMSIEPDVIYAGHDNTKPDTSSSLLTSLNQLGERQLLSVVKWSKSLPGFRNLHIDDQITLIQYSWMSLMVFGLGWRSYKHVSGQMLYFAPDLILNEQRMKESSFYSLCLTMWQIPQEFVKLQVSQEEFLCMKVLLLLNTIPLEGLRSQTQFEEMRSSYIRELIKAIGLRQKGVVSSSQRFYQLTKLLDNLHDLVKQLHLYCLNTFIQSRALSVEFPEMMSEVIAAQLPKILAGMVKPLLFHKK

[2] = biological target: Retinoic acid receptor gamma (Homo sapiens) (UniProt P13631); experiment: Agonist activity at gal-RARgamma expressed in african green monkey CV1 cells co-expressing MH100 up to 10 uM by luciferase reporter gene assay relative to control; type: functional, cell-based; settings: CV-1
Chain of Retinoic acid receptor gamma (Homo sapiens) (P13631 whole entry, the tested form may be a part): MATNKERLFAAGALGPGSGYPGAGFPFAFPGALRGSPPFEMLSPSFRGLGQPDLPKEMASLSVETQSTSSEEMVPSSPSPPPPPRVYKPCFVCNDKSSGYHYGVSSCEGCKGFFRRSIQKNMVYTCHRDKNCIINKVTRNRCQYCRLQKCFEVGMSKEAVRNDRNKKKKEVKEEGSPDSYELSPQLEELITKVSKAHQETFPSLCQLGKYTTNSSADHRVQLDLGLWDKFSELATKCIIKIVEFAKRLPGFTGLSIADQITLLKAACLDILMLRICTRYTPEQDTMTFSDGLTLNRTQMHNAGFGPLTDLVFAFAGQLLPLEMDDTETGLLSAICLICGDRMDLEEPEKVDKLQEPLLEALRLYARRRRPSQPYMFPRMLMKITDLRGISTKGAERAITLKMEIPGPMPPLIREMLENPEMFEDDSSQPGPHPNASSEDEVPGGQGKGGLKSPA

[3] = biological target: Retinoic acid receptor RXR-alpha (Homo sapiens) (UniProt P19793); experiment: Agonist activity at RXRalpha-LBD expressed in african green monkey CV1 cells co-expressing MH100 by luciferase reporter gene assay; type: functional, cell-based; settings: CV-1
Chain of Retinoic acid receptor RXR-alpha (Homo sapiens) (P19793 whole entry, the tested form may be a part): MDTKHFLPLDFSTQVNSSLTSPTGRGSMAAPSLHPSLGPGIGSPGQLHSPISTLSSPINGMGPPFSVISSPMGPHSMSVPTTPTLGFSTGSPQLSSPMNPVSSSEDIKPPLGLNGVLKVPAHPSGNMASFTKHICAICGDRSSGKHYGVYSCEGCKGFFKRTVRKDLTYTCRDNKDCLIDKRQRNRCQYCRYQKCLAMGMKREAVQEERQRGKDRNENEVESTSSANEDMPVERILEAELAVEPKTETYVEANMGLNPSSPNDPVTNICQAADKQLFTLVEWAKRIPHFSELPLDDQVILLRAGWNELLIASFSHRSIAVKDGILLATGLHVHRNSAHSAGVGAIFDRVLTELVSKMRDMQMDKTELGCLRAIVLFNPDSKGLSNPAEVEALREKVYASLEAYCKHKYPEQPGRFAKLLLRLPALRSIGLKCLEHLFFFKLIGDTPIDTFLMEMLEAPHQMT

[4] = biological target: Estrogen receptor (Homo sapiens, UniProt P03372); experiment: Antagonist activity at gal-ERalpha expressed in african green monkey CV1 cells co-expressing MH100 by luciferase reporter gene assay; type: functional, cell-based, CV-1
Chain of Estrogen receptor (P03372 whole entry): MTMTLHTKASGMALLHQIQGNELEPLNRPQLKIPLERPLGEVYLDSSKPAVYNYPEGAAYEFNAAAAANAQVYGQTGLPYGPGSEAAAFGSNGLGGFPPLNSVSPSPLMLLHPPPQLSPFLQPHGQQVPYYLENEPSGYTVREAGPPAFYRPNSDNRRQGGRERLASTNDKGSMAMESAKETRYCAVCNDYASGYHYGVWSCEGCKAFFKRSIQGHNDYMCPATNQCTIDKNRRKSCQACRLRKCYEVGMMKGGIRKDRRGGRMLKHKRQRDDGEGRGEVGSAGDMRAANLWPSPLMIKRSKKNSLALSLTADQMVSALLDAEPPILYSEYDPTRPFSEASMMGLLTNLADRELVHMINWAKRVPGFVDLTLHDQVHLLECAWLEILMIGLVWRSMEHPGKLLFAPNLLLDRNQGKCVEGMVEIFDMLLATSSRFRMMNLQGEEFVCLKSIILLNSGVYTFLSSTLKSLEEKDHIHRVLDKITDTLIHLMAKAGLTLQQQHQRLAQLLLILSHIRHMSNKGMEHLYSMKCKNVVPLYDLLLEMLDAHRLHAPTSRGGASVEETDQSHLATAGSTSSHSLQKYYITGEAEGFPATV

[5] = Half life in CD rat at 3 mg/kg, iv; type: ADME, organism-based; parameters: dose 3 mg/kg, route intravenous; settings: in vivo
[6] = biological target: Retinoic acid receptor gamma (Homo sapiens) (UniProt P13631); experiment: Agonist activity at gal-RARgamma expressed in african green monkey CV1 cells co-expressing MH100 by luciferase reporter gene assay; type: functional, cell-based; settings: CV-1
[7] = biological target: T2, Mineralocorticoid receptor (Homo sapiens) (UniProt P08235); experiment: Antagonist activity at gal-MR expressed in african green monkey CV1 cells co-expressing MH100 at 10 uM by luciferase reporter gene assay; type: functional, cell-based; settings: CV-1
T2 sequence (whole entry): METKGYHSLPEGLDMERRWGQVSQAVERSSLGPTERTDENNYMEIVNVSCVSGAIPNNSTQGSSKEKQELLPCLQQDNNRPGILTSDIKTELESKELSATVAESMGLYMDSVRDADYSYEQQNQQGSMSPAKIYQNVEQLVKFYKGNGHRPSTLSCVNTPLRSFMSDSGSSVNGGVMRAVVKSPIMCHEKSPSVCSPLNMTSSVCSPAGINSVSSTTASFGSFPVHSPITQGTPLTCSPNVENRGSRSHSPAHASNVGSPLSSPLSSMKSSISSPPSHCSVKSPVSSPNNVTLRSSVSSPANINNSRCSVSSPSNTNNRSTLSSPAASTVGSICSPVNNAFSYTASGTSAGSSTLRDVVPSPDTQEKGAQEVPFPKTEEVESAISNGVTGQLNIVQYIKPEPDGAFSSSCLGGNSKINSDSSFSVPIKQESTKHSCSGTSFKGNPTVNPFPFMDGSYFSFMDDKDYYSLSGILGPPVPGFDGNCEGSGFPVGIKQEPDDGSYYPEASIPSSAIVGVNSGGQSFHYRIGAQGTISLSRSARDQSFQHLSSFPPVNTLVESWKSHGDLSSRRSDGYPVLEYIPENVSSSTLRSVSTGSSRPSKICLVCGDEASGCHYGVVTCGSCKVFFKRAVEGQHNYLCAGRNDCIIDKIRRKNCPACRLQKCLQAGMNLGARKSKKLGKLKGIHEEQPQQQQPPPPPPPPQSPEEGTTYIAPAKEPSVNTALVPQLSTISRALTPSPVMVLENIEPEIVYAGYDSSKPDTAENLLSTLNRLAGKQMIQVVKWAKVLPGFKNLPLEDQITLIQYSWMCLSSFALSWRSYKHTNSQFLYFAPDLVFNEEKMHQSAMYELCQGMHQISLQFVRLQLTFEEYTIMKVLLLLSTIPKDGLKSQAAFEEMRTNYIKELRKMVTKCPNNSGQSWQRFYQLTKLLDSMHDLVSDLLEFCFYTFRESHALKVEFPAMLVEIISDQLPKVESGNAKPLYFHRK

[8] = Volume of distribution in CD rat at 3 mg/kg, iv; type: ADME, organism-based; parameters: dose 3 mg/kg, route intravenous; settings: in vivo, read-out: Vdss

Activity [1]: inactive | Activity [2]: inactive | Activity [3]: inactive | IC50 [4]: 10 µM | half-life [5]: 40.1 h | Activity [6]: inactive | inhibition [7]: 27% | Vd [8]: 3.3 L/kg
SMILES: CC(C)OC(=O)C1=CN(C(=O)c2ccc(F)c(F)c2)CC(C)(C)c2c1[nH]c1ccccc21 [TUROFEXORATE ISOPROPYL]
